{
  "source": "patent US20070225217A1",
  "about": "“Methods, compositions, and kits for the treatment of medical conditions” (CombinatoRx, Incorporated, priority 2005, published 2007)",
  "origin": "cited, not measured here",
  "data": [
    {"molecule": "CO[C@H]1C[C@@H]2CC[C@@H](C)[C@@](O)(O2)C(=O)C(=O)N2CCCC[C@H]2C(=O)O[C@H]([C@H](C)C[C@@H]2CC[C@@H](O)[C@H](OC)C2)CC(=O)[C@H](C)/C=C(\\C)[C@@H](O)[C@@H](OC)C(=O)[C@H](C)C[C@H](C)/C=C/C=C/C=C/1C", "note": "[Rapamycin]", "values": [
      {"measurement": "absorption after oral administration", "result": "absorbed rapidly and completely"}
    ]}
  ]
}
